In patent US10927123B2, “Modulators of the beta-3 adrenergic receptor useful for the treatment or prevention of disorders related thereto” (Arena Pharmaceuticals, Inc., priority 2016, dated 2021):
pIC50: −log10 of the molar value.

Each compound was assayed against Beta-3 Adrenergic Receptor (Homo sapiens (Human), UniProt P13945) (assay: HTRF cAMP antagonist assay (IC50 determination)). Conditions: CHO-K1 cells stably expressing recombinant receptor; antagonism of isoproterenol at EC90; cAMP readout.
Format: cell-based
In short: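 Antagonist mode: isoproterenol at its predetermined EC90 added after compound to recombinant CHO-K1 cells in IBMX-containing PBS, 1 h, room temperature. Compounds tested as 5-fold, 10-point dilutions, top final typically 10 or 100 μM. HTRF signal converted to cAMP via standard curve, giving IC50.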

Chain of Beta-3 Adrenergic Receptor (P13945 whole entry, species assumed): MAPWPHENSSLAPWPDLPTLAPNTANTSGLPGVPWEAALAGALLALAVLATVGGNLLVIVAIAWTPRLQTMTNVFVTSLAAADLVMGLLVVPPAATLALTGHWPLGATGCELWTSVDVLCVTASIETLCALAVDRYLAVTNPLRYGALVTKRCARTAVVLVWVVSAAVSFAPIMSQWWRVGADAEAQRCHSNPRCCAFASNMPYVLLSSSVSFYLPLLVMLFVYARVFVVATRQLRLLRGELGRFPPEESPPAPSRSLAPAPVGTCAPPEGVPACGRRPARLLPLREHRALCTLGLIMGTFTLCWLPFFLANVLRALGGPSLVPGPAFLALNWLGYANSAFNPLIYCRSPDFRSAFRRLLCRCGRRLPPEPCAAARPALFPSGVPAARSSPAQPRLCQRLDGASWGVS

Row | pIC50 | SMILES
1 | 7.69 | O=S(=O)(c1ccc2ccccc2c1)N1CCC2(CC1)C[C@@H](NC[C@H](O)COc1cccc(S(=O)(=O)C3(CO)CC3)c1)CO2 [Compound 300, (S)-1-(3-(1-(hydroxymethyl)cyclopropylsulfonyl)phenoxy)-3-((R)-8-(naphthalen-2-ylsulfonyl)-1-oxa-8-azaspiro[4.5]decan-3-ylamino)propan-2-ol]
2 | 6.45 | CCOc1c(S(=O)(=O)N2CCC3(CC2)C[C@@H](NC[C@H](O)COc2cccc(S(=O)(=O)C4(CO)CC4)c2)CO3)ccc2ccccc12 [Compound 301, (S)-1-((R)-8-(1-ethoxynaphthalen-2-ylsulfonyl)-1-oxa-8-azaspiro[4.5]decan-3-ylamino)-3-(3-(1-(hydroxymethyl)cyclopropylsulfonyl)phenoxy)propan-2-ol]
3 | 6.16 | O=S(=O)(c1cnc2cccn2c1)N1CCC2(CC1)C[C@@H](NC[C@H](O)COc1cccc(S(=O)(=O)C3(CO)CC3)c1)CO2 [Compound 302, (S)-1-(3-(1-(hydroxymethyl)cyclopropylsulfonyl)phenoxy)-3-((R)-8-(pyrrolo[1,2-a]pyrimidin-3-ylsulfonyl)-1-oxa-8-azaspiro[4.5]decan-3-ylamino)propan-2-ol]
4 | 7.77 | O=S(=O)(c1cccc(OC[C@@H](O)CN[C@H]2COC3(CCN(S(=O)(=O)c4cnc5c(c4)NCCO5)CC3)C2)c1)C1CC1 [Compound 303, (S)-1-(3-(cyclopropylsulfonyl)phenoxy)-3-((R)-8-(2,3-dihydro-1H-pyrido[2,3-b][1,4]oxazin-7-ylsulfonyl)-1-oxa-8-azaspiro[4.5]decan-3-ylamino)propan-2-ol]
5 | 7.16 | COCCN1CCOc2ncc(S(=O)(=O)N3CCC4(CC3)C[C@@H](NC[C@H](O)COc3cccc(S(=O)(=O)C5CC5)c3)CO4)cc21 [Compound 304, (S)-1-(3-(cyclopropylsulfonyl)phenoxy)-3-((R)-8-(1-(2-methoxyethyl)-2,3-dihydro-1H-pyrido[2,3-b][1,4]oxazin-7-ylsulfonyl)-1-oxa-8-azaspiro[4.5]decan-3-ylamino)propan-2-ol]
6 | 7.77 | C[C@@H]1CN(C)c2cc(S(=O)(=O)N3CCC4(CC3)C[C@@H](NC[C@H](O)COc3cccc(S(=O)(=O)C5CC5)c3)CO4)cnc2O1 [Compound 305, (S)-1-(3-(cyclopropylsulfonyl)phenoxy)-3-((R)-8-((R)-1,3-dimethyl-2,3-dihydro-1H-pyrido[2,3-b][1,4]oxazin-7-ylsulfonyl)-1-oxa-8-azaspiro[4.5]decan-3-ylamino)propan-2-ol]
7 | 7.20 | CCn1cc(S(=O)(=O)N2CCC3(CC2)C[C@@H](NC[C@H](O)COc2cccc(S(=O)(=O)COC)c2)CO3)c(=O)c2ccccc21 [Compound 306, 1-ethyl-3-((R)-3-((S)-2-hydroxy-3-(3-(methoxymethylsulfonyl)phenoxy)propylamino)-1-oxa-8-azaspiro[4.5]decan-8-ylsulfonyl)quinolin-4(1H)-one]
8 | 7.23 | O=S(=O)(c1cccc(OC[C@@H](O)CN[C@H]2COC3(CCN(S(=O)(=O)c4c[nH]c5ncccc45)CC3)C2)c1)C1CC1 [Compound 307, (S)-1-((R)-8-(1H-pyrrolo[2,3-b]pyridin-3-ylsulfonyl)-1-oxa-8-azaspiro[4.5]decan-3-ylamino)-3-(3-(cyclopropylsulfonyl)phenoxy)propan-2-ol]
9 | 7.46 | O=S(=O)(c1cccc(OC[C@@H](O)CN[C@H]2COC3(CCN(S(=O)(=O)c4c[nH]c5ccccc45)CC3)C2)c1)C1CC1 [Compound 308, (S)-1-((R)-8-(1H-indol-3-ylsulfonyl)-1-oxa-8-azaspiro[4.5]decan-3-ylamino)-3-(3-(cyclopropylsulfonyl)phenoxy)propan-2-ol]
10 | 7.36 | CS(=O)(=O)c1cccc(OC[C@@H](O)CN[C@H]2COC3(CCN(S(=O)(=O)c4c[nH]c5ccccc45)CC3)C2)c1 [Compound 311, (S)-1-((R)-8-(1H-indol-3-ylsulfonyl)-1-oxa-8-azaspiro[4.5]decan-3-ylamino)-3-(3-(methylsulfonyl)phenoxy)propan-2-ol]
11 | 7.50 | COCS(=O)(=O)c1cccc(OC[C@@H](O)CN[C@H]2COC3(CCN(S(=O)(=O)c4c[nH]c5ccccc45)CC3)C2)c1 [Compound 312, (S)-1-((R)-8-(1H-indol-3-ylsulfonyl)-1-oxa-8-azaspiro[4.5]decan-3-ylamino)-3-(3-(methoxymethylsulfonyl)phenoxy)propan-2-ol]
12 | 6.85 | O=C1Cc2cc(S(=O)(=O)N3CCC4(CC3)C[C@@H](NC[C@H](O)COc3cccc(S(=O)(=O)C5CC5)c3)CO4)cnc2N1 [Compound 313, 5-((R)-3-((S)-3-(3-(cyclopropylsulfonyl)phenoxy)-2-hydroxypropylamino)-1-oxa-8-azaspiro[4.5]decan-8-ylsulfonyl)-1H-pyrrolo[2,3-b]pyridin-2(3H)-one]
13 | 6.57 | CCn1cc(S(=O)(=O)N2CCC3(CC2)C[C@@H](NC[C@H](O)COc2cccc(S(=O)(=O)C4CC4)c2)CO3)c(=O)c2cc(F)ccc21 [Compound 314, 3-((R)-3-((S)-3-(3-(cyclopropylsulfonyl)phenoxy)-2-hydroxypropylamino)-1-oxa-8-azaspiro[4.5]decan-8-ylsulfonyl)-1-ethyl-6-fluoroquinolin-4(1H)-one]
14 | 7.62 | CCn1cc(S(=O)(=O)N2CCC3(CC2)C[C@@H](NC[C@H](O)COc2cccc(S(=O)(=O)C4CC4)c2)CO3)c(=O)c2cccc(C)c21 [Compound 315, 3-((R)-3-((S)-3-(3-(cyclopropylsulfonyl)phenoxy)-2-hydroxypropylamino)-1-oxa-8-azaspiro[4.5]decan-8-ylsulfonyl)-1-ethyl-8-methylquinolin-4(1H)-one]
15 | 7.20 | CCn1cc(S(=O)(=O)N2CCC3(CC2)C[C@@H](NC[C@H](O)COc2cccc(S(=O)(=O)C4CC4)c2)CO3)c(=O)c2ccc(F)cc21 [Compound 316, 3-((R)-3-((S)-3-(3-(cyclopropylsulfonyl)phenoxy)-2-hydroxypropylamino)-1-oxa-8-azaspiro[4.5]decan-8-ylsulfonyl)-1-ethyl-7-fluoroquinolin-4(1H)-one]
16 | 6.98 | CCn1cc(S(=O)(=O)N2CCC3(CC2)C[C@@H](NC[C@H](O)COc2cccc(S(=O)(=O)C4CC4)c2)CO3)c(=O)c2cc(C)ccc21 [Compound 317, 3-((R)-3-((S)-3-(3-(cyclopropylsulfonyl)phenoxy)-2-hydroxypropylamino)-1-oxa-8-azaspiro[4.5]decan-8-ylsulfonyl)-1-ethyl-6-methylquinolin-4(1H)-one]
17 | 7.02 | CCn1cc(S(=O)(=O)N2CCC3(CC2)C[C@@H](NC[C@H](O)COc2cccc(S(=O)(=O)C4CC4)c2)CO3)c(=O)c2ccc(C)cc21 [Compound 318, 3-((R)-3-((S)-3-(3-(cyclopropylsulfonyl)phenoxy)-2-hydroxypropylamino)-1-oxa-8-azaspiro[4.5]decan-8-ylsulfonyl)-1-ethyl-7-methylquinolin-4(1H)-one]
18 | 7.78 | O=S(=O)(c1cccc(OC[C@@H](O)CN[C@H]2COC3(CCN(S(=O)(=O)c4cnc5cn[nH]c5c4)CC3)C2)c1)C1CC1 [Compound 319, (S)-1-((R)-8-(1H-pyrazolo[4,3-b]pyridin-6-ylsulfonyl)-1-oxa-8-azaspiro[4.5]decan-3-ylamino)-3-(3-(cyclopropylsulfonyl)phenoxy)propan-2-ol]
19 | 7.95 | CS(=O)(=O)c1cccc(OC[C@@H](O)CN[C@H]2COC3(CCN(S(=O)(=O)c4cnc5cc[nH]c5c4)CC3)C2)c1 [Compound 320, (S)-1-((R)-8-(1H-pyrrolo[3,2-b]pyridin-6-ylsulfonyl)-1-oxa-8-azaspiro[4.5]decan-3-ylamino)-3-(3-(methylsulfonyl)phenoxy)propan-2-ol]
20 | 7.75 | CC(C)S(=O)(=O)c1cccc(OC[C@@H](O)CN[C@H]2COC3(CCN(S(=O)(=O)c4cnc5cc[nH]c5c4)CC3)C2)c1 [Compound 321, (S)-1-((R)-8-(1H-pyrrolo[3,2-b]pyridin-6-ylsulfonyl)-1-oxa-8-azaspiro[4.5]decan-3-ylamino)-3-(3-(isopropylsulfonyl)phenoxy)propan-2-ol]
21 | 7.66 | CCn1cc(S(=O)(=O)N2CCC3(CC2)C[C@@H](NC[C@H](O)COc2cccc(S(C)(=O)=O)c2)CO3)c(=O)c2cccc(F)c21 [Compound 322, 1-ethyl-8-fluoro-3-((R)-3-((S)-2-hydroxy-3-(3-(methylsulfonyl)phenoxy)propylamino)-1-oxa-8-azaspiro[4.5]decan-8-ylsulfonyl)quinolin-4(1H)-one]
22 | 7.30 | CC(C)S(=O)(=O)c1cccc(OC[C@@H](O)CN[C@H]2COC3(CCN(S(=O)(=O)c4cnc5c(F)cccc5c4O)CC3)C2)c1 [Compound 323, 8-fluoro-3-((R)-3-((S)-2-hydroxy-3-(3-(isopropylsulfonyl)phenoxy)propylamino)-1-oxa-8-azaspiro[4.5]decan-8-ylsulfonyl)quinolin-4-ol]
23 | 7.65 | Cc1ccc2ncc(S(=O)(=O)N3CCC4(CC3)C[C@@H](NC[C@H](O)COc3cccc(S(=O)(=O)C5CC5)c3)CO4)c(O)c2c1 [Compound 324, 3-((R)-3-((S)-3-(3-(cyclopropylsulfonyl)phenoxy)-2-hydroxypropylamino)-1-oxa-8-azaspiro[4.5]decan-8-ylsulfonyl)-6-methylquinolin-4-ol]
24 | 7.47 | O=S(=O)(c1cccc(OC[C@@H](O)CN[C@H]2COC3(CCN(S(=O)(=O)c4cnc5ccc(F)cc5c4O)CC3)C2)c1)C1CC1 [Compound 325, 3-((R)-3-((S)-3-(3-(cyclopropylsulfonyl)phenoxy)-2-hydroxypropylamino)-1-oxa-8-azaspiro[4.5]decan-8-ylsulfonyl)-6-fluoroquinolin-4-ol]
25 | 7.76 | O=c1c(S(=O)(=O)N2CCC3(CC2)C[C@@H](NC[C@H](O)COc2cccc(S(=O)(=O)C4CC4)c2)CO3)c[nH]c2ccccc12 [Compound 326, 3-((R)-3-((S)-3-(3-(cyclopropylsulfonyl)phenoxy)-2-hydroxypropylamino)-1-oxa-8-azaspiro[4.5]decan-8-ylsulfonyl)quinolin-4(1H)-one]
